The values that follow come from patent US9873680B2 (Gilead Sciences, Inc., priority 2014, dated 2018).

In one data set the test system is HIV-IIIb. Briefly: Test A: Antiviral Assay in MT4 Cells. Particulars: for inhibition at 0.2 µM: 0.2 μM drug concentration. The format is cell-based, HIV-1. As for the experimental part: Test A: Antiviral Assay in MT4 Cells
MT-4 cells were next mixed with HIV-IIIb at an m.o.i of 0.003 for 1 hour, after which time 35 μL of virus/cell mixture (2000 cells) was immediately added to each well containing 40 μL of diluted compound. The plates were then incubated at 37° C. for 5 days. After 5 days of incubation, 25 μl of 2× concentrated CellTiter-Glo™ Reagent (catalog #G7571, Promega Biosciences, Inc., Madison, Wis.) was added to each well containing MT-4 cells. Cell lysis was carried out by incubating at room temperature for 10 min and then chemiluminescence was read.

Data set [1] in a line: Test B: Cytotoxicity Assay. The format is cell-based. Particulars: human, uninfected MT-4 cells, CellTiter-Glo. As for the experimental part: Test B: Cytotoxicity Assay Compound cytotoxicity and the corresponding CC50 values was determined using the same protocol as described in the antiviral assay (Test A) except that uninfected cells were used.
Background: In ATP-based viability assays light output follows the ATP content of the culture.

The mark [2] stands for this setting: Human immunodeficiency virus 1, MT4, 120 h, MT-4 cells infected with HIV-IIIb, 5 days, values normalized to 100%, average over time, read-out: % inhibition at 0.2 μM (percent inhibition of virus-induced cell killing).

Like-named read-outs stand apart in the source and are kept apart here.

With `NC(=O)c1cc(-c2ccc(C#CC3(O)CCCC3)nc2[C@H](Cc2cc(F)cc(F)c2)NC(=O)Cn2nc(C(F)(F)F)c3c2C(F)(F)[C@@H]2C[C@H]32)ccc1F` [Compound 15B, 5-(2-((S)-1-(2-((3bS,4aR)-5,5-difluoro-3-(trifluoromethyl)-3b,4,4a,5-tetrahydro-1H-cyclopropa[3,4]cyclopenta[1,2-c]pyrazol-1-yl)acetamido)-2-(3,5-difluorophenyl)ethyl)-6-((1-hydroxycyclopentyl)ethynyl)pyridin-3-yl)-2-fluorobenzamide], the inhibition – broadly, the percentage by which the read-out fell short of the control – at 0.2 µM in the data set with HIV-IIIb (Human immunodeficiency virus 1, IIIB, MT4, comparison with previously published compounds, read-out: Response at 0.2 μM (percent inhibition of virus-induced cell killing)) is 68%; in the data set with HIV-IIIb (setting [2]) it was 68%. Further, the inhibition at 2 µM with HIV-IIIb (Human immunodeficiency virus 1, IIIB, MT4, 2 μM drug concentration, comparison with previously published compounds, read-out: Response at 2 μM (percent inhibition of virus-induced cell killing)) worked out at 68%. Also, the half-maximal cytotoxic concentration (CC50) (in general, the concentration giving 50% cytotoxicity) at 5 days in data set [1] is 3.02 µM.

For `Cn1nc(NS(C)(=O)=O)c2c(Cl)ccc(-c3ccc(-c4cnn(C5CCOCC5)c4)nc3[C@H](Cc3cc(F)cc(F)c3)NC(=O)Cn3nc(C(F)(F)F)c4c3C(F)(F)[C@@H]3C[C@H]43)c21` [Compound 71, N—((S)-1-(3-(4-chloro-1-methyl-3-(methylsulfonamido)-1H-indazol-7-yl)-6-(1-(tetrahydro-2H-pyran-4-yl)-1H-pyrazol-4-yl)pyridin-2-yl)-2-(3,5-difluorophenyl)ethyl)-2-((3bS,4aR)-5,5-difluoro-3-(trifluoromethyl)-3b,4,4a,5-tetrahydro-1H-cyclopropa[3,4]cyclopenta[1,2-c]pyrazol-1-yl)acetamide], the inhibition at 0.2 µM in the data set with HIV-IIIb (setting [2]) was found to be 97%. Further, in data set [1], the CC50 at 5 days was > 53.2 µM.

On to `Cn1nc(NS(C)(=O)=O)c2c(Cl)ccc(-c3ccc(C#CC(C)(O)Cn4cncn4)nc3[C@H](Cc3cc(F)cc(F)c3)NC(=O)Cn3nc(C(F)(F)F)c4c3C(F)(F)[C@@H]3C[C@H]43)c21` (stereo partly drawn) [Compound 70B, N-((1S)-1-(3-(4-chloro-1-methyl-3-(methylsulfonamido)-1H-indazol-7-yl)-6-(3-hydroxy-3-methyl-4-(1H-1,2,4-triazol-1-yl)but-1-yn-1-yl)pyridin-2-yl)-2-(3,5-difluorophenyl)ethyl)-2-((3bS,4aR)-5,5-difluoro-3-(trifluoromethyl)-3b,4,4a,5-tetrahydro-1H-cyclopropa[3,4]cyclopenta[1,2-c]pyrazol-1-yl)acetamide], for which the inhibition at 0.2 µM in the data set with HIV-IIIb (setting [2]) was determined as 96%. The CC50 at 5 days in data set [1] was 14.2 µM.

Regarding `CC1CC(O)(C#Cc2ccc(-c3ccc(Cl)c4c(NS(C)(=O)=O)nn(C)c34)c([C@H](Cc3cc(F)cc(F)c3)NC(=O)Cn3nc(C(F)(F)F)c4c3C(F)(F)[C@@H]3C[C@H]43)n2)CC(C)O1` (stereo partly drawn) [Compound 48C, N-((1S)-1-(3-(4-chloro-1-methyl-3-(methylsulfonamido)-1H-indazol-7-yl)-6-((4-hydroxy-2,6-dimethyltetrahydro-2H-pyran-4-yl)ethynyl)pyridin-2-yl)-2-(3,5-difluorophenyl)ethyl)-2-((3bS,4aR)-5,5-difluoro-3-(trifluoromethyl)-3b,4,4a,5-tetrahydro-1H-cyclopropa[3,4]cyclopenta[1,2-c]pyrazol-1-yl)acetamide], the inhibition at 0.2 µM with HIV-IIIb (setting [2]) is 92%. Also, the CC50 at 5 days in data set [1] came out at 7.27 µM.

As to `Cn1nc(NS(C)(=O)=O)c2c(Cl)ccc(-c3ccc(C#CC4(O)CC(F)(F)C4)nc3[C@H](Cc3cccc(F)c3)NC(=O)Cn3nc(C(F)F)c4c3C(F)(F)[C@@H]3C[C@H]43)c21` [Compound 101H, N—((S)-1-(3-(4-chloro-1-methyl-3-(methylsulfonamido)-1H-indazol-7-yl)-6-((3,3-difluoro-1-hydroxycyclobutyl)ethynyl)pyridin-2-yl)-2-(3-fluorophenyl)ethyl)-2-((3bS,4aR)-3-(difluoromethyl)-5,5-difluoro-3b,4,4a,5-tetrahydro-1H-cyclopropa[3,4]cyclopenta[1,2-c]pyrazol-1-yl)acetamide], the inhibition at 0.2 µM with HIV-IIIb (setting [2]) stood at 91%. In data set [1], this compound gave a CC50 at 5 days of 9.1 µM.

Turning to `Cn1cnc(C#Cc2ccc(-c3ccc(Cl)c4c(NS(C)(=O)=O)nn(C)c34)c([C@H](Cc3cc(F)cc(F)c3)NC(=O)Cn3nc(C(F)F)c4c3C(F)(F)[C@@H]3C[C@H]43)n2)c1` [Compound 78, N—((S)-1-(3-(4-chloro-1-methyl-3-(methylsulfonamido)-1H-indazol-7-yl)-6-((1-methyl-1H-imidazol-4-yl)ethynyl)pyridin-2-yl)-2-(3,5-difluorophenyl)ethyl)-2-((3bS,4aR)-3-(difluoromethyl)-5,5-difluoro-3b,4,4a,5-tetrahydro-1H-cyclopropa[3,4]cyclopenta[1,2-c]pyrazol-1-yl)acetamide], the inhibition at 0.2 µM with HIV-IIIb (setting [2]) was 87%. Further, the CC50 at 5 days in data set [1] was > 36.6 µM.

Consider `CN1CCC(O)(C#Cc2ccc(-c3cccc4c(NS(C)(=O)=O)nn(C)c34)c([C@H](Cc3cc(F)cc(F)c3)NC(=O)Cn3nc(C(F)(F)F)c4c3C(F)(F)[C@@H]3C[C@H]43)n2)CC1` [Compound 31, 2-((3bS,4aR)-5,5-difluoro-3-(trifluoromethyl)-3b,4,4a,5-tetrahydro-1H-cyclopropa[3,4]cyclopenta[1,2-c]pyrazol-1-yl)-N—((S)-2-(3,5-difluorophenyl)-1-(6-((4-hydroxy-1-methylpiperidin-4-yl)ethynyl)-3-(1-methyl-3-(methylsulfonamido)-1H-indazol-7-yl)pyridin-2-yl)ethyl)acetamide], for which, in the data set on HIV-IIIb (setting [2]), the inhibition at 0.2 µM was determined as 93%. In data set [1], the midpoint of cytotoxicity, the CC50 at 5 days, lay at 20.2 µM.

Take `Cn1nc(NS(C)(=O)=O)c2cccc(-c3ccc(C#CC4(C)COC4)nc3[C@H](Cc3cc(F)cc(F)c3)NC(=O)Cn3nc(C(F)(F)F)c4c3C(F)(F)[C@@H]3C[C@H]43)c21` [Compound 29, 2-((3bS,4aR)-5,5-difluoro-3-(trifluoromethyl)-3b,4,4a,5-tetrahydro-1H-cyclopropa[3,4]cyclopenta[1,2-c]pyrazol-1-yl)-N—((S)-2-(3,5-difluorophenyl)-1-(3-(1-methyl-3-(methylsulfonamido)-1H-indazol-7-yl)-6-((3-methyloxetan-3-yl)ethynyl)pyridin-2-yl)ethyl)acetamide]: the inhibition at 0.2 µM with HIV-IIIb (setting [2]) worked out at 100%. Also, in data set [1], it took 12.4 µM to reach half-maximal cytotoxicity (CC50 at 5 days).

Consider `Cn1nc(NS(C)(=O)=O)c2c(Cl)ccc(-c3ccc(C#CC4(O)CCC4)nc3[C@H](Cc3cc(F)cc(F)c3)NC(=O)Cn3nc(C(F)(F)F)c4c3C(F)(F)[C@@H]3C[C@H]43)c21` [Compound 61C, N—((S)-1-(3-(4-chloro-1-methyl-3-(methylsulfonamido)-1H-indazol-7-yl)-6-((1-hydroxycyclobutyl)ethynyl)pyridin-2-yl)-2-(3,5-difluorophenyl)ethyl)-2-((3bS,4aR)-5,5-difluoro-3-(trifluoromethyl)-3b,4,4a,5-tetrahydro-1H-cyclopropa[3,4]cyclopenta[1,2-c]pyrazol-1-yl)acetamide], for which the inhibition at 0.2 µM with HIV-IIIb (setting [2]) stood at 93%. The same compound registered a CC50 at 5 days in data set [1] of 7.89 µM.

In the case of `Cn1nc(NS(C)(=O)=O)c2c(Cl)ccc(-c3cc(-c4cnn(C5COC5)c4)cnc3[C@H](Cc3cc(F)cc(F)c3)NC(=O)Cn3nc(C(F)F)c4c3C(F)(F)[C@@H]3C[C@H]43)c21` [Compound 93D, N—((S)-1-(3-(4-chloro-1-methyl-3-(methylsulfonamido)-1H-indazol-7-yl)-5-(1-(oxetan-3-yl)-1H-pyrazol-4-yl)pyridin-2-yl)-2-(3,5-difluorophenyl)ethyl)-2-((3bS,4aR)-3-(difluoromethyl)-5,5-difluoro-3b,4,4a,5-tetrahydro-1H-cyclopropa[3,4]cyclopenta[1,2-c]pyrazol-1-yl)acetamide], in the data set with HIV-IIIb (setting [2]), the inhibition at 0.2 µM stood at 93%. Further, in data set [1], the CC50 at 5 days came out at 18.3 µM.

Regarding `O=C(Cn1nc(C(F)(F)F)c2c1C(F)(F)[C@@H]1C[C@H]21)N[C@@H](Cc1cc(F)cc(F)c1)c1nc(C#Cc2ccc(=O)[nH]c2)ccc1-c1ccc2c(c1)C(=O)NC2` [Compound 12, 2-((3bS,4aR)-5,5-difluoro-3-(trifluoromethyl)-3b,4,4a,5-tetrahydro-1H-cyclopropa[3,4]cyclopenta[1,2-c]pyrazol-1-yl)-N—((S)-2-(3,5-difluorophenyl)-1-(6-((6-oxo-1,6-dihydropyridin-3-yl)ethynyl)-3-(3-oxoisoindolin-5-yl)pyridin-2-yl)ethyl)acetamide], in the data set on HIV-IIIb (setting [2]), the inhibition at 0.2 µM is 70%. The CC50 at 5 days in data set [1] is 7.7 µM.

For the compound `Cn1nc(NS(C)(=O)=O)c2c(Cl)ccc(-c3ccc(C#C[C@]4(C)CNCCO4)nc3[C@H](Cc3cc(F)cc(F)c3)NC(=O)Cn3nc(C#N)c4c3C(F)(F)[C@@H]3C[C@H]43)c21` [Compound 88L, N—((S)-1-(3-(4-chloro-1-methyl-3-(methylsulfonamido)-1H-indazol-7-yl)-6-(((R)-2-methylmorpholin-2-yl)ethynyl)pyridin-2-yl)-2-(3,5-difluorophenyl)ethyl)-2-((3bS,4aR)-3-cyano-5,5-difluoro-3b,4,4a,5-tetrahydro-1H-cyclopropa[3,4]cyclopenta[1,2-c]pyrazol-1-yl)acetamide], the inhibition at 0.2 µM in the data set on HIV-IIIb (setting [2]) amounted to 97%. Besides, the CC50 at 5 days in data set [1] turned out to be 5.79 µM.

For the compound `Cc1cc(C#Cc2ncc(-c3ccc4c(c3)C(=O)NC4)c([C@H](Cc3cc(F)cc(F)c3)NC(=O)Cn3nc(C(F)F)c4c3C(F)(F)CCC4(F)F)n2)ccn1` [Compound 11, (S)-2-(3-(difluoromethyl)-4,4,7,7-tetrafluoro-4,5,6,7-tetrahydro-1H-indazol-1-yl)-N-(2-(3,5-difluorophenyl)-1-(2-((2-methylpyridin-4-yl)ethynyl)-5-(3-oxoisoindolin-5-yl)pyrimidin-4-yl)ethyl)acetamide], in the data set on HIV-IIIb (setting [2]), the inhibition at 0.2 µM was 69%. This compound registered a CC50 at 5 days in data set [1] of 0.761 µM.
